This is an account of results in US20250319139A1, “METHODS FOR TREATING NEUROINFLAMMATION” (University of Virginia Patent Foundation, priority 2021, published 2025).

Structures are written as SMILES.

What all share (type): in vivo, mouse
The test system of assay [1] is C57BL/6J mice. Nature of the assay: Novel object recognition test, young adult mice.
Assay [2] relates to newly generated brain cells. Briefly: BrdU immunofluorescent staining, brain cell genesis. Conditions: young adult mice with exercise and surgery; intraperitoneal valeric acid. Here is the method:
Seven days after surgery, mice were given 7 consecutive intraperitoneal injections of 80 mg/kg 5′-bromo-2′-deoxyuridine (BrdU) at 12:00 once daily as previously described. Mice were sacrificed 5 days later for harvesting hippocampus. Hippocampus was fixed in 4% paraformaldehyde in 0.1 M phosphate-buffered saline at 4° C. for 24 h and embedded in paraffin. Five-micron thick coronal brain sections were cut sequentially from Bregma −2 to −4 mm. Antigen retrieval was performed by incubating sections with sodium citrate buffer containing 10 mM sodium citrate, 0.05% Tween 20 (pH 6.0) at 95-100° C. for 20 min. DNA denaturation was done by incubating with 1 N HCl on ice for 3 min, 2 N HCL at room temperature for 3 min, and at 37° C. for 6 min. Sections were blocked with 5% donkey serum in phosphate-buffered saline (PBS) containing 0.5% triton-X 100 for 2 h at room temperature. […] Images were acquired with a fluorescence microscope with a charge-coupled device camera (High Mag Olympus BX51) and a LSM710 confocal microscopy system (ZEISS). […] The number of all cells positively stained for an interested marker or the combination of two markers in the sub-granular zone of the dentate gyrus of each section was counted. The quantitative analyses were performed in a blinded manner.

The subject of assay [3] is IL-17. Briefly: ELISA of IL-17 in the serum. The method, then:
Mice were weighed and anesthetized with isoflurane at 24 h after MCAO. Blood samples were obtained from the right heart after thoracotomy. Blood was centrifuged (13,000 g, 4° C.) after it had been placed at 4° C. for 2 h for the collection of serum. After the collection of blood, mice were perfused with 4° C. saline for brain tissue harvesting. The cerebral cortex (anteroposterior: −1.5 to 2.5 mm, mediolateral: 1.0 to 3.0 mm) was dissected out. All dissection procedures were performed on ice.
(§1) IL-10, IL-17, IL-1β and IL-6 in the serum and brain were detected by using ELISA kits (catalog number: M1000B, M1700, MLB00C and D6050, R&D SYSTEM, Inc., Minneapolis, MN, USA) as we described before. The brain tissues were homogenized on ice in the RIPA buffer containing 25 mM Tris-HCl with pH 7.6, 150 mM NaCl, 1% sodium deoxycholate and 0.1% SDS (catalog number: 89901, Thermo Scientific, Rockford, IL, USA) and a protease inhibitor cocktail containing 10 mg/ml aproteinin, 5 mg/ml peptastin, 5 mg/ml leupetin and 1 mM phenylmethane sulfonylfluoride (catalog number: SRE0055, Sigma-Aldrich, St. Louis, MO, USA). The supernatant was collected for ELISA detection after being centrifuged for 20 min (13,000 g, 4° C.) and the protein concentration was determined by the BCA method. Cytokines in the serum and supernatant of brain were detected according to the manufacturer's instruction. The amount of IL-10, IL-17, IL-1β and IL-6 in each sample in the brain was normalized by its protein content.
(In an ELISA, binding on a coated surface is turned into a signal by an enzyme label.)

For assay [4], the system named is IL-1β. Nature of the assay: ELISA of IL-1β in the serum. Conditions: young mice, 100 mg/kg intraperitoneal 1 h before and 6 h after 120-min MCAO; 24 h after MCAO; vs saline. Here is the method: as §1, with “Mice were weighed and anesthetized with isoflurane at 24 h after MCAO. Blood samples were obtained from the right heart after thoracotomy. Blood was centrifuged (13,000 g, 4° C.) after it had been placed at 4° C. for 2 h for the collection of serum. After the collection of blood, mice were perfused with 4° C. saline for brain tissue harvesting. The cerebral cortex (anteroposterior: -1.5 to 2.5 mm, mediolateral: 1.0 to 3.0 mm) was dissected out. All dissection procedures were performed on ice. IL-10,” for “IL-10,”, “[…],” for “peptastin,”, “The amount of IL-10, IL-17, IL-1β and IL-6 in each sample in the brain was normalized by its protein content.” left out

Regarding `CCCCC(=O)O` [valeric acid], the “performance in novel object recognition test” value in assay [1] (13-week old mice without surgery, intracerebroventricular 4 mg/kg once daily for 4 days (1/50 dose of intraperitoneal injection)) is on record as “did not affect the performance”; in assay [1] (young adult mice with exercise and surgery, valeric acid 200 mg/kg intraperitoneal once a week vs normal saline), “abolished”. Further, the “exercise attenuation of the decrease of newly generated brain cells” value in assay [2] was “this attenuation was blocked”. Moreover, the “IL-17 in the blood” value is “increase” in assay [3] (mice without MCAO, valeric sodium 100 mg/kg intraperitoneal for 7 days); “increased” in assay [3] (young mice, 100 mg/kg intraperitoneal 1 h before and 6 h after 120-min MCAO, 24 h after MCAO, vs saline). The “IL-1β in the blood” value in assay [4] is listed as “increased”.
